In patent US12110283B2, “Carbonic anhydrase targeting agents and methods of using same” (VisEn Medical, Inc., priority 2011, dated 2024):

Columns and labels:
[1] = tested on: HeLa tumors; experiment: Detection of in vivo induction of hypoxia in mice with HeLa tumors (FRI of excised tumors); conditions: 2 nmol i.v., tumors excised and imaged by FRI 24 hours after injection
Experimental: Female nu/nu mice at 4-5 weeks old, obtained from (Harlan Laboratory, Indianapolis, IN) were injected subcutaneously (s.c.) with HeLa cells (1.5×10^6 cells/site) in the mammary fat pads. Once tumors reached the desired volume of 600-700 mm^3 (measured with calipers using the formula volume mm^3=length×width^2/2), mice were grouped randomly (n=4-5 mice/group) for with some exposed to controlled hypoxic environmental conditions (8% oxygen) in a chamber with monitored oxygen levels. Control mice with matched tumor volumes were maintained under normal housing conditions. C5, (2 nmol) was injected intravenously to all mice at 24 hours after the initiation of the experiment. Hypoxic mice were placed back into the hypoxic chamber after the injection, and tumors were excised and imaged by fluorescence reflectance imaging (FRI) 24 hours following injection. FIGS. 6A-B show fluorescence images of the excised tumors from mice that were placed in normal air (left) and 8% 02 (right).

[2] = tested on: HeLa tumors; experiment: Imaging of tumors in vivo using CA agents (planar reflectance and FMT); conditions: NU/NU mice, bilateral HeLa tumors, 2 nmoles i.v., 24 hrs post-injection
Experimental: In this experiment, NU/NU mice 6-8 weeks old (Charles River Laboratory, Wilmington, MA) were injected subcutaneously (s.c.) with about 2×10^6 HeLa cells bilaterally in each mammary fat pad. When tumors reached an approximate size of 3×3 mm, mice were injected intravenously (i.v.) with 2 nmoles of carbonic anhydrase agent C5 or nonbinding control agent D3 (5 mice/probe+2 mice/no probe as control) in 100 μL volume via tail vein. Imaging was conducted at 24 hrs post-injection using a Fluorescence Molecular Tomography system (VisEn Medical, Bedford, MA) that is commercially available.

[3] = tested on: HeLa tumors; experiment: Effect of acetazolamide treatment on carbonic anhydrase signal in HeLa tumor-bearing mice (FMT); type: in vivo; conditions: for accumulation in tumors as quantified by FMT (FIG. 5B): 24 hours
Experimental: HeLa tumor-bearing mice were randomized once their tumors reached the desired volume and injected i.v. with either C5 (2 nmoles). For competition studies, mice were injected with the acetazolamide (10 mg/kg) followed 60 minutes later by compound C5 (2 nmoles). Imaging was performed 24 hours after administration of the agents using the FMT 2500.

[4] = Biodistribution of i.v. administered compound in HeLa tumor bearing mice; type: in vivo; conditions: 2 nmoles i.v., 24 hr, excised tissues, reflectance mode
Experimental: Female NU/NU mice 6-8 weeks old (Charles River Laboratory, Wilmington, MA) were injected subcutaneously (s.c.) with HeLa cells (5×10^6) in the first mammary fat pads. Once tumors reached the desired volume (measured with calipers using the formula volume mm^3=(length×width^2)/2), mice were injected i.v. with compound C5 (2 nmoles) or nonbinding control D3. Mice were sacrificed by carbon dioxide asphyxiation 24 hr later and certain tissues removed, rinsed with saline, blotted dry, and the imaged on a VisEn FMT 2500 using the reflectance mode. Regions of interest (ROIs) were drawn around each organ using the FMT Software and the mean fluorescence (reported as counts/energy) determined for each organ and normalized to the mean fluorescence in tumors taken to be 100%.

## CC1(C)C(/C=C/C(=C/C=C2/N(CCCS(=O)(=O)O)c3ccc4c(S(=O)(=O)O)cc(S(=O)(=O)O)cc4c3C2(C)C)c2ccc(C(=O)NCCC(=O)Nc3nnc(S(N)(=O)=O)s3)cn2)=[N+](CCCS(=O)(=O)[O-])c2ccc3c(S(=O)(=O)O)cc(S(=O)(=O)O)cc3c21 [Compound C5, 3-(2-((1E,3Z,5E)-5-(1,1-dimethyl-6,8-disulfo-3-(3-sulfopropyl)-1H-benzo[e]indol-2(3H)-ylidene)-3-(5-((3-oxo-3-((5-sulfamoyl-1,3,4-thiadiazol-2-yl)amino)propyl)carbamoyl)pyridin-2-yl)penta-1,3-dien-1-yl)-1,1-dimethyl-6,8-disulfo-1H-benzo[e]indol-3-ium-3-yl)propane-1-sulfonate]
[1]
  uptake in excised tumors, hypoxic atmosphere (8% oxygen) versus normal air (FIGS. 6A-B): significantly greater uptake
[2]
  tumor signal by planar reflectance and tomographic imaging: tumors can be imaged effectively
[3]; 2 nmoles i.v., no acetazolamide
  accumulation in tumors as quantified by FMT (FIG. 5B): 116 pmol
[3]; acetazolamide 10 mg/kg 60 minutes before agent (2 nmoles i.v.)
  accumulation in tumors as quantified by FMT (FIG. 5B): 39 pmol
[3]; acetazolamide 10 mg/kg 60 minutes before agent (2 nmoles i.v.), imaging at 24 hours
  tumor signal in tomographic images after acetazolamide compared to untreated animals (FIG. 5A): reduced signal
[3]; acetazolamide 10 mg/kg 60 minutes before agent, versus untreated
  less tumor signal in acetazolamide treated animals: approximately 66%
[4]
  tissue fluorescence (biodistribution), normalized to tumors (FIG. 4): very low in most tissues with the high concentrations found in tumors, and lower concentrations accumulated in the kidneys
